Reference: patent US5948793A, “3-pyridyloxymethyl heterocyclic ether compounds useful in controlling neurotransmitter release” (Abbott Laboratories, priority 1995, dated 1999)
Where a name gives a salt, the structure may show the parent alone.

What follows are molecules tested against neuronal nicotinic cholinergic channel receptors (assay: [3H]-cytisine displacement binding to neuronal nicotinic cholinergic channel receptors). Settings: Table 2; [3H]-cytisine 1.25 nM, 60 min at 4° C.; read-out: Receptor Binding Ki.
Assay type: rat (crude synaptic membranes from whole rat brain)
Method: B. Protocol For Determination of Nicotinic Cholinergic Channel Receptor Binding Potencies of Ligands
Binding of [^3 H]-cytisine ([^3 H]-CYT) to nicotinic receptors was accomplished using crude synaptic membrane preparations from whole rat brain (Pabreza et al., Molecular Pharmaol., 1990, 39:9). Washed membranes were stored at -80° C. prior to use. Frozen aliquots were slowly thawed and resuspended in 20 volumes of buffer (containing: 120 mM NaCl, 5 mM KCl, 2 mM MgCl2, 2 mM CaCl2 and 50 mM Tris-Cl, pH 7.4 @4° C.). After centrifuging at 20,000×g for 15 minutes, the pellets were resuspended in 30 volumes of buffer. Homogenate (containing […]) was added to triplicate tubes containing concentrations of test compound and [^3 H]-CYT (1.25 nM) in a final volume of 500 μL. Samples were incubated for 60 minutes at 4° C., then rapidly filtered through Whatman GF/B filters presoaked in 0.5% polyethylimine using 3×4 mL of ice-cold buffer. The filters are counted in 4 mL of Ecolume® (ICN). […] Alternately, data were expressed as a percentage of the total specific binding.

Point of comparison: `CN1CC[C@H]1COc1ccc(Cl)nc1` [Example 86, 3-((1-methyl-2-(S)-azetidinyl)methoxy)-6-chloropyridine hydrochloride], Ki 1.43 nM. Against it:
- CO[C@@H]1C[C@@H](COc2cccnc2)N(C)C1 [Example 47, 34 (trans-4-methoxy-1-methyl-2-(S)-pyrrolidinyl)methoxy)pyridine dihydrochloride] — 16-fold higher, 23 nM
- C=CCN1CCC[C@H]1COc1cccnc1 [Example 82, 3-((1-allyl-2-(S)-pyrrolidinyl)methoxy)pyridine dihydrochloride] — 51-fold higher, 72.4 nM
- CCC[C@H]1CCN[C@H]1COc1cccnc1 (relative stereo) [Example 61, 3-((cis-3-propyl-2-pyrrolidinyl)methoxy)pyridine dihydrochloride] — within 1.5-fold, 1.3 nM
- CN1CCC[C@H]1CCOc1ccc(Cl)nc1 [Example 105, 3-(2-(1-methyl-2-(S)-pyrrolidinyl)ethoxy-6-chloropyridinedihydrochloride] — 23-fold higher, 33.1 nM
- CN1CCC[C@H]1COc1nccs1 [Example 11, 2-((1-methyl-2-(S)-pyrrolidinyl)methoxy)thiazole hydrochloride] — 77-fold higher, 110 nM
- CN1CCC[C@H]1COc1ccc(CO)nc1 [Example 88, 6-hydroxymethyl-3-((1-methyl-2-(S)-pyrrolidinyl)methoxy)pyridine dihydrochloride] — 7.3-fold higher, 10.4 nM
- Clc1ccc(OC[C@H]2CCCN2)cn1 [Example 58, 3-(2-(R)-pyrrolidinylmethoxy)-6-chloropridine hydrochloride] — 3.7-fold higher, 5.3 nM
- CN1CCC[C@H]1COc1cncnc1 [Example 84, 5-(1-methyl-2-(S)-pyrrolidinylmethoxy)pyrimidine dihydrochloride] — 1.7-fold higher, 2.41 nM
- CN1C[C@@H](CF)C[C@H]1COc1cccnc1 [Example 92, 3-((cis-4-fluoromethyl-1-methyl-2-(S)-pyrrolidinyl)methoxy)pyridine dihydrochloride] — 99-fold higher, 141 nM
- CO[C@H]1CN[C@H](COc2cccnc2)C1 [Example 74, 3-((trans-4-methoxy-2-(S)-pyrrolidinyl)methoxy)pyridine dihydrochloride] — 41-fold higher, 59 nM
- COCC1C[C@@H](COc2cccnc2)N(C)C1 (stereo partly drawn) [Example 49, 3-((4-methoxymethyl-1-methyl-2-(S)-pyrrolidinyl)methoxy)pyridine dihydrochloride] — 46-fold higher, 66 nM
- C=CCN1CCC[C@H]1COc1cncc(Br)c1 [Example 57, 3-((1-allyl-2-(S)-pyrrolidinyl)methoxy)-5-bromopyridine dihydrochloride] — 12-fold higher, 17 nM
- FC(F)(F)c1cncc(OC[C@@H]2CCCN2)c1 [Example 66, 3-(2-(S)-pyrrolidinylmethoxy)-5-trifluoromethylpyridine dihydrochloride] — 2.8-fold higher, 4 nM
- CCCCc1cncc(OC[C@@H]2CCCN2C)c1 [Example 71, 5-n-butyl-3-((1-methyl-2-(S)-pyrrolidinyl)methoxy)pyridine dihydrochloride] — 14-fold lower, 0.1 nM
- CN1CCC[C@H]1COc1cncc([N+](=O)[O-])c1 [Example 108, 5-Nitro-3-(1-methyl-2(S)-pyrrolidinylmethoxy)pyridine hydrochloride] — 3.4-fold higher, 4.9 nM
- Cc1ccncc1OC[C@@H]1CCN1 [Example 64, 4methyl-3-(2-(S)-azetidinylmethoxy)pyridine dihydrochloride] — 160-fold higher, 224 nM
- Cc1ncccc1OC[C@@H]1CCN1C [Example 30, 2-Methyl-3-((1-methyl-2-(S)-azetidinyl)methoxy)pyridine dihydrochloride] — 90-fold higher, 129 nM
- Brc1cncc(OC[C@@H]2CCN2)c1 [Example 67, 3-(2-(S)-azetidinylmethoxy)-5-bromopyridine dihydrochloride] — 7.1-fold lower, 0.2 nM
- Clc1cncc(OC[C@@H]2CCCN2)c1 [Example 15, 5-chloro-3-(2-(S)-pyrrolidinylmethoxy)pyridine dihydrochloride] — 11-fold lower, 0.13 nM
- CN1CCCC[C@@H]1COc1cccnc1 [Example 42, 3-((1-methyl-2-(R)-piperidinyl)methoxy)pyridine dihydrochloride] — 240-fold higher, 342 nM
- Clc1cc(OC[C@@H]2CCN2)cnc1Cl [Example 109, 5,6-Dichloro-3-(2-(S)-azetidinylmethoxy)pyridine hydrochloride] — 60-fold lower, 0.024 nM
- c1ccc2ncc(OC[C@H]3CCCN3)cc2c1 [Example 76, 3-(2-(R)-pyrrolidinylmethoxy)quinoline dihydrochloride] — 9-fold higher, 12.8 nM
- CCCc1cncc(OC[C@@H]2CCCN2C)c1 [Example 77, 5-n-propyl-3-((1-methyl-2-(S)-pyrrolidinyl)methoxy)pyridine dihydrochloride] — 14-fold lower, 0.1 nM
- CN1CCC[C@H]1COc1cncc(C(F)(F)F)c1 [Example 44, 3-(1-methyl-2-(S)-pyrrolidinylmethoxy)-5-trifluoromethylpyridine dihydrochloride] — within 1.5-fold, 1.8 nM
- CN1C[C@H](CO)C[C@H]1COc1cccnc1 [Example 83, 3-((trans-4-hydroxymethyl-1-methyl-2-(S)-pyrrolidinyl)methoxy)pyridine dihydrochloride] — 51-fold higher, 73.1 nM
- Brc1cncc(OC[C@@H]2CCCN2)c1 [Example 65, 5-bromo-3-(2-(S)-pyrrolidinylmethoxy)pyridine dihydrochloride] — 2.4-fold lower, 0.6 nM
- CN1CCC[C@H]1COc1cnccn1 [Example 3, 2-((1-methyl-2-(S)-pyrrolidinyl)methoxy)pyrazine fumarate] — 14-fold higher, 20 nM

Same assay, conditions: read-out: Receptor Binding Ki

Point of comparison: `CN1CCC[C@H]1COc1ccc(Cl)nn1` [Example 12, 3-((1-methyl-2-(S)-pyrrolidinyl)methoxy-6-chloropyridazine fumarate], Ki 29 nM. Against it:
- CN1CCC[C@@H]1COc1cncc(Cl)c1 [Example 34, 5-chloro-3-((1-methyl-2-(R)-pyrrolidinyl)methoxy)pyridine dihydrochloride] — 2.6-fold lower, 11 nM
- CC[C@@H]1C[C@@H](COc2cccnc2)N(C)C1 [Example 25, 3-((trans-1-methyl-4-ethyl-2(S)-pyrrolidinyl)methoxy)pyridine dihydrochloride] — 2-fold lower, 14.7 nM
- Cc1ccc(OC[C@H]2CCCN2C)cn1 [Example 36, 6-methyl-3-((1-methyl-2-(R)-pyrrolidinyl)methoxy)pyridine dihydrochloride] — within 1.5-fold, 26 nM
- C[C@@H]1C[C@@H](COc2cccnc2)N(C)C1 [Example 24, 3-((trans-1,4-dimethyl-2(S)-pyrrolidinyl)methoxy)pyridine dihydrochloride] — 6.9-fold lower, 4.2 nM
- c1cncc(OC[C@H]2CCCN2)c1 [Example 2, 3-(2-(R)-pyrrolidinylmethoxy)pyridine dihydrochloride] — 170-fold lower, 0.17 nM
- CN1CC[C@H]1COc1ccc(Cl)nn1 [Example 13, 6-chloro-3-((1-methyl-2(S)-azetidinyl)methoxy)pyridazine oxalate] — 2.2-fold higher, 65 nM
- CN1C[C@H](O)C[C@H]1COc1cccnc1 [Example 23, 3-((trans-1-methyl-4-hydroxy-2(S)-pyrrolidinyl)methoxy)pyridine dihydrochloride] — 2.7-fold higher, 78.3 nM
- Cc1ccncc1OC[C@@H]1CCCN1 [Example 27, 4-methyl-3-(2-(S)-pyrrolidinylmethoxy)pyridine dihydrochloride] — 5-fold lower, 5.8 nM
- C[C@H]1CC[C@@H](COc2cccnc2)N1C [Example 22, 3-((cis-1,5-dimethyl-2-(S)-pyrrolidinyl)methoxy)pyridine dihydrochloride] — within 1.5-fold, 25 nM
